The values that follow come from patent US4900538A (Suntory Limited, priority 1982, dated 1990).

“And” between values parts separate entries of the source, which are not always exact repeats. Equal entries are not always repeated. Where two headings read alike, the source gives them in different places.

Series [1] has as its system Escherichia coli K 12 envA uvr B (λ), GY 5027. The series is classed as cell-based. Particulars: for Inactivation of mutagenicity (phage induction activity) of adriamycin, dose-response: absence of S9 mix, molar ratios to adriamycin 1:1 to 30:1 (FIG. 12). The source says:
Inductest III (P. Morean, A. Bailone and R. Devoret: Proc. Natl. Acad. Sci. U.S.A., Vol. 73, No. 10, 3700-3704, '76). This method is a test for mutagenicity using prophage λ induction as an index. The strains used in this method were Escherichia coli K 12 envA uvr B (λ), GY 5027 and as λ indicator GY 4015 (Amp R).
This method uses phage induction activity as an index.
Potassium sulfite was used as a sulfite compound and potassium pyrosulfite which produces 2 equivalents of hydrogensulfite ion when dissolved in water was used as acid sulfite.
Dithionite produces two equivalents of hydrogensulfite ions when dissolved in water.
The molar ratio of sodium dithionite to daunomycin was 15:1. In FIGS. 13 and 14 the symbol indicates daunomycin alone and the symbol indicates daunomycin plus sodium dithionite.
Sodium sulfite was used as a sulfite at a molar ratio of sodium sulfite to daunomycin of 30:1.

The subject of series [2] is Salmonella typhimurium TA 98. The series is described as follows: Ames test (Preincubation Method): mutagenicity and its inactivation by sulfite compounds. Particulars: FIGS. 1, 6 and 7 (also FIGS. 3 and 4, Inductest III). As to the method: This method is based on the Ames test (B. N. Ames, J. Mac Gann and E. Yamasaki: Mutation Research, Vol. 31, 347-364, '75). […] The strain used in this method was histidine requisite Salmonella typhimurium TA 100 and TA 98 (hereinafter referred to as St TA 100 and St TA 98).
At the same time, predetermined amounts of sodium sulfite, sodium hydrogensulfite (sodium acid sulfite), sodium pyrosulfite, sodium dithionite or sulphurous anhydride were dissolved in aseptic distilled water.
To 100 μl of each of the samples prepared in the above (2), 500 μl of 100 mM sodium phosphate buffer (pH 7.4) and 100 μl of a culture of St TA 100 or St TA 98 were added. Each mixture was shaken for 20 minutes at 37° C., added to 2.5 ml of a soft agar solution and spread on 0.1% glucose agar plate which had been supplemented with 0.1 μM per plate of histidine in order to create several divisions. After incubation at 37° C. for 48 hours, the number of colonies on the plate was counted as revertants. This method uses nutrient requisiteness of the above strains as an index.

The subject of another series is male CD-1 (ICR) mice. As to the kind of experiment: Acute toxicity in mice (survival days). As to the method:
Male CD-1 (ICR) mice (12 weeks old) were used as test animals. The temperature in the animal room was maintained at 23° C. (±3° C.) and relative humidity was kept at 30-70%. Artificial lighting was carried out by illumination and darkening at successive intervals of 12 hours.
The test substances were dissolved in distilled water and intraperitoneally administered to the animals at a dose of 10 ml/kg.
The above t-test was carried out as follows.

For another series, the system named is DNA. The conditions noted are these: cited from earlier work.
A further series has as its system L1210 cells. As to the kind of experiment: In vivo carcinostatic activity against transplanted L1210 cells (ILS, survivors). The conditions noted are these: i.p.
Series [3] has as its system strains used (Salmonella typhimurium, Escherichia coli). The series is described as follows: Growth / survival of the strains used in the mutagenicity tests. The series is classed as cell-based. The conditions noted are these: explains apparent reduction of mutagenicity at high levels.
The conditions of series [4]: Japanese Patent application No. 144272/81; cited from earlier work.

Procedure for L1210 cells: Male BDF1 mice (57BL/6XDBA/2) weighing 19-20 g were used in this experiment. Feed (CA-1, Nihon Kurea Kabushiki Kaisha, Meguro-ku, Tokyo, Japan) and water were freely taken. 1×10^5 L 1210 cells were intraperitoneally transplanted to a mouse in each group of 6 mice. Test substances were intraperitoneally administered to mice 24 hours after i.p. injection of L1210 cells and thereafter one time each day for 5 days. Survival days of all of the mice were recorded and carcinostatic effects of the test compounds were measured by using index of life spread (ILS %) to the control group.

On to `O=S([O-])S(=O)(=O)[O-].[K+].[K+]` [acid sulfite, potassium pyrosulfite], for which the “Inactivation of mutagenicity (phage induction activity) of adriamycin, dose-response” value in series [1] is on record as “the more remarkably the mutagenicity of adriamycin was inactivated”.
With `COc1cccc2c1C(=O)c1c(O)c3c(c(O)c1C2=O)C[C@@](O)(C(=O)CO)C[C@@H]3O[C@H]1C[C@H](N)[C@H](O)[C@H](C)O1` [adriamycin], in series [2], the “Apparent change of mutagenicity at high levels of the antibiotic per se” value is “appear to be reduced at high levels”. Further, the “Survival days, individual mouse” value was 0 days (8×) and 1 days (4×) in the series on male CD-1 (ICR) mice (experiment (1): adriamycin 20 mg/kg i.p. daily for 3 days, no hydrogensulfite, mice No. 1-12 in order); 14 days and 7 days and 6 days and 5 days and 4 days in the series with male CD-1 (ICR) mice (experiment (2): adriamycin alone 20 mg/kg i.p., mice No. 1-11 in order, listed as ADM). Besides, the “Survival days, mean (x)” value in the series with male CD-1 (ICR) mice (experiment (1): adriamycin 20 mg/kg i.p. daily for 3 days, no hydrogensulfite, n=12, s 0.5778) came to 0.3333 days; in the series with male CD-1 (ICR) mice (experiment (2): adriamycin alone 20 mg/kg i.p., n=11, s 2.747), 7.545 days. In the series with DNA, the “Base pairs of DNA reacting per one molecule (intercalation)” value was 3 base pairs. For the same molecule, the “Survivors (on Day 60)” value was 1 and 1/6 with L1210 cells (adriamycin 1 mg/kg/day × 5, sodium hydrogensulfite 0); “zero and 0/6” with L1210 cells (adriamycin 3 mg/kg/day × 5, sodium hydrogensulfite 0).
On to `COc1cccc2c1C(=O)c1c(O)c3c(c(O)c1C2=O)C[C@@](O)(C(C)=O)C[C@@H]3O[C@H]1C[C@H](N)[C@H](O)[C@H](C)O1` [daunomycin], for which the “Apparent change of mutagenicity at high levels of the antibiotic per se” value in series [2] is given as “appear to be reduced at high levels”. Also, the Cellular toxicity entry in series [3] is on record as “have cellular toxicity”. Besides, the “Base pairs of DNA reacting per one molecule (intercalation)” value in the series on DNA is 3 base pairs.
As for `O=S(O)O` [hydrogensulfite ion], the “Hydrogensulfite ion in molar concentration necessary for complete inactivation of mutagenicity of adriamycin” value in series [1] (absence of S9 mix (FIG. 5)) is listed as “at least ten”.
`O=S([O-])S(=O)[O-].[Na+].[Na+]` [sodium dithionite]: the “Inactivation of mutagenicity of daunomycin (phage induction)” value in series [1] (molar ratio dithionite to daunomycin 15:1, independently of S9 mix (FIGS. 13 and 14)) is listed as “completely inactivated”.
On to `O=S([O-])O.[Na+]` [sodium hydrogensulfite], for which, in the series on male CD-1 (ICR) mice (experiment (1): adriamycin 20 mg/kg for 3 days, sodium hydrogensulfite 53.8 mg/kg (FIG. 10)), the “Reduction of toxicity of adriamycin (t-test of survival days)” value is “significantly reduced toxicity at a confidence level of 90%”.
Regarding `O=S([O-])[O-].[Na+].[Na+]` [sodium sulfite], the “Inactivation of mutagenicity of daunomycin (phage induction)” value in series [1] (molar ratio sodium sulfite to daunomycin 30:1, absence and presence of S9 mix (FIGS. 15 and 16)) is given as “completely inactivated”.
Regarding `O=S(O)O` [sulfite ion], the “Inactivation of mutagenicities of coffee, tobacco tar and spirits” value in series [4] is recorded as “inactivates mutagenicities”.
With `O=S([O-])[O-].[K+].[K+]` [sulfite, potassium sulfite], in series [1], the “Inactivation of mutagenicity (phage induction activity) of adriamycin, dose-response” value is given as “the more remarkably the mutagenicity of adriamycin was inactivated”.
